Assay results published in PubChem BioAssay AID2060355 (Molecular Pharmacology Branch, DTP, NCI, 2025).
pIC50: −log10 of the molar value.

Tested on: 485368-065-R4-J2-PDC spheroids with HUVEC/MSC, viability
Test: Anticancer human tumor 485368-065-R4-J2-PDC patient-derived pancreatic carcinoma cell line growth inhibition [TAK]
Details: for pIC50: curve of first compound; for viability, T/C: stronger effect = lower value
Source text: Combinatorial screen of targeted agents with TAK-243 and ipatasertib in multi-cell type tumor spheroids
A high-throughput screen of multi-cell type tumor spheroids was designed to identify active combinations of targeted small molecules and TAK-243 or ipatasertib. Complex spheroids include a stromal component modeled by human endothelial cells (HUVEC) and fibroblasts modeled by human mesenchymal stem cells (MSCs). The concentration ranges selected for each drug and investigational agent were based upon clinically achievable concentrations if the clinical Cmax of the agent was known.
Compounds. The drugs and investigational agents: TAK-243 (785004), ipatasertib (767898), everolimus (733504), selumetinib (741078), bortezomib (756655), trametinib (758246), ixazomib (758254), vemurafenib (761431), dabrafenib (764134), sapanisertib (764658), alpelisib (765974), and copanlisib (816437), were obtained from the National Cancer Institute (NCI) Developmental Therapeutics Program Chemical Repository. The FDA-approved anticancer drug set is available from the NCI Developmental Therapeutics Program. […] The stock solutions were prepared in dimethyl sulfoxide (DMSO, Sigma-Aldrich, St. Louis, MO, cat. D2650) at 800-fold the tested concentration and stored at -70 degrees C prior to their use. All drugs and investigational agents were tested over a range starting from a high concentration at or near the clinical Cmax and decreasing in half-log increments. If the clinical Cmax for an agent had not been determined, the highest concentration tested was 10 microM.
NCI60 Cell Culture. NCI60 cell lines were obtained from the NCI Developmental Therapeutics Program Tumor Repository. For each lot of cells, the Repository performed Applied Biosystems AmpFLSTR Identifiler testing with PCR amplification to confirm consistency with the published Identifier STR profile for each cell line. Cells were kept in continuous culture for no more than 20 passages. The optimal seeding densities for each of the cell lines at each time point assessed were determined prior to performing the concentration response studies. Briefly, the NCI60 human tumor lines were grown as monolayers in RPMI 1640 medium supplemented with 10% FBS and 2 mmol/L L-glutamine.
An additional 2 lines were from the NCI60 cell line panel including melanomas, MALME-3M and SK-MEL-2. Pooled donor human umbilical vein endothelial cells (HUVEC, Lonza, cat. CC-2519) and human mesenchymal stem cells (hMSC, Lonza, cat. PT-2501) were purchased from Lonza (Walkersville, MD).
PDMR cell lines were grown in complete medium (DC medium): Dulbecco's modified Eagle's medium (DMEM)/F12 supplemented with 5% fetal bovine serum (FBS), 2 mM L-glutamine, 100 U/mL penicillin and 100 µg/ml streptomycin, 0.4 µg/ml hydrocortisone, 10 ng/ml epidermal growth factor (EGF) recombinant human protein, 24 µg/mL adenine, and 0.1 mg/mL primocin. During culture from frozen stock vials, PDMR cells were cultured in the same medium containing 10 µM Y-27632 (see Table 3). The PDCs were cultured in complete DMEM/F12 media without 10 microM Y-27632 dihydrochloride for at least two passages prior to the screen. The pooled donor HUVEC and hMSC were cultured in endothelial cell growth medium 2 (PromoCell, Heidelberg, Germany, cat. C-22011) and mesenchymal stem cell growth medium 2 (PromoCell, cat. C-28009), respectively. For all experiments, HUVEC and hMSC were used at passages </=5.
For the pre-screen, cell seeding densities were determined from a titration spanning the range from 5,000 to 313 cells per well. The mct-spheroids including 60% malignant cells, 25% HUVEC and 15% MSC dispensed as a mixture into U-bottom Ultra-Low Attachment 384-well plates (Corning, NY)
High-throughput Drug Combination Screening.
Prior to their inoculation into 384-well plates, malignant cells, HUVEC, and hMSC were removed from T flasks using TrypLE express (Thermo Fisher Scientific, cat. 12605036) and harvested by centrifugation for 5 min at 233 x g. […]

[1] = second compound 0.3 µM, first compound 0.00949 µM
[2] = second compound 0.3 µM, first compound 0.03 µM
[3] = second compound 0.949 µM, first compound 0.00949 µM
[4] = second compound 0.949 µM, first compound 0.03 µM
[5] = second compound 3 µM, first compound 0.00949 µM
[6] = second compound 3 µM, first compound 0.03 µM
[7] = second compound 9.49 µM, first compound 0.00949 µM
[8] = second compound 9.49 µM, first compound 0.03 µM
[9] = second compound 30 µM, first compound 0.00949 µM
[10] = second compound 30 µM, first compound 0.03 µM
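Note: spheroids exposed to compounds for seven days before readout.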
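Throughout, for viability, T/C: 100% = DMSO vehicle control wells.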

CC(=O)Nc1cccc(-n2c(=O)n(C3CC3)c(=O)c3c(Nc4ccc(I)cc4F)n(C)c(=O)c(C)c32)c1 + CC(C)NCC(C(=O)N1CCN(c2ncnc3c2C(C)CC3O)CC1)c1ccc(Cl)cc1
pIC50 (second compound 0.3 µM): 8.46
pIC50 (second compound 0.949 µM): 8.79
pIC50 (second compound 3 µM): 8.91
pIC50 (second compound 9.49 µM): 9.22
pIC50 (second compound 30 µM): 9.50
viability, T/C (second compound 0.3 µM, first compound 94.9 pM): 89.9%
viability, T/C (second compound 0.3 µM, first compound 0.0003 µM): 76.2%
viability, T/C (second compound 0.3 µM, first compound 0.000949 µM): 72.8%
viability, T/C (second compound 0.3 µM, first compound 0.003 µM): 51.8%
viability, T/C [1]: 33.5%
viability, T/C [2]: 20.4%
viability, T/C (second compound 0.949 µM, first compound 94.9 pM): 94.2%
viability, T/C (second compound 0.949 µM, first compound 0.0003 µM): 92.3%
viability, T/C (second compound 0.949 µM, first compound 0.000949 µM): 61.8%
viability, T/C (second compound 0.949 µM, first compound 0.003 µM): 34.3%
viability, T/C [3]: 19.2%
viability, T/C [4]: 12.7%
viability, T/C (second compound 3 µM, first compound 94.9 pM): 96.6%
viability, T/C (second compound 3 µM, first compound 0.0003 µM): 88.2%
viability, T/C (second compound 3 µM, first compound 0.000949 µM): 58.3%
viability, T/C (second compound 3 µM, first compound 0.003 µM): 22%
viability, T/C [5]: 12%
viability, T/C [6]: 8.82%
viability, T/C (second compound 9.49 µM, first compound 94.9 pM): 89.8%
viability, T/C (second compound 9.49 µM, first compound 0.0003 µM): 70.1%
viability, T/C (second compound 9.49 µM, first compound 0.000949 µM): 36.3%
viability, T/C (second compound 9.49 µM, first compound 0.003 µM): 15.8%
viability, T/C [7]: 10.2%
viability, T/C [8]: 7.89%
viability, T/C (second compound 30 µM, first compound 94.9 pM): 70.6%
viability, T/C (second compound 30 µM, first compound 0.0003 µM): 50%
viability, T/C (second compound 30 µM, first compound 0.000949 µM): 31.5%
viability, T/C (second compound 30 µM, first compound 0.003 µM): 13.8%
viability, T/C [9]: 10.2%
viability, T/C [10]: 7.05%

CC(C)CC(NC(=O)C(Cc1ccccc1)NC(=O)c1cnccn1)B(O)O (stereo not given) + CC(C)NCC(C(=O)N1CCN(c2ncnc3c2C(C)CC3O)CC1)c1ccc(Cl)cc1
pIC50 (second compound 0.3 µM): 8.23
pIC50 (second compound 0.949 µM): 8.23
pIC50 (second compound 3 µM): 8.23
pIC50 (second compound 9.49 µM): 8.29
pIC50 (second compound 30 µM): 8.33
viability, T/C (second compound 0.3 µM, first compound 31.6 pM): 98.2%
viability, T/C (second compound 0.3 µM, first compound 0.0001 µM): 96.9%
viability, T/C (second compound 0.3 µM, first compound 0.000316 µM): 90.6%
viability, T/C (second compound 0.3 µM, first compound 0.001 µM): 92.2%
viability, T/C (second compound 0.3 µM, first compound 0.00316 µM): 108%
viability, T/C (second compound 0.3 µM, first compound 0.01 µM): 10%
viability, T/C (second compound 0.949 µM, first compound 31.6 pM): 94.5%
viability, T/C (second compound 0.949 µM, first compound 0.0001 µM): 94.3%
viability, T/C (second compound 0.949 µM, first compound 0.000316 µM): 103%
viability, T/C (second compound 0.949 µM, first compound 0.001 µM): 98.4%
viability, T/C (second compound 0.949 µM, first compound 0.00316 µM): 102%
viability, T/C (second compound 0.949 µM, first compound 0.01 µM): 9.62%
viability, T/C (second compound 3 µM, first compound 31.6 pM): 94.3%
viability, T/C (second compound 3 µM, first compound 0.0001 µM): 101%
viability, T/C (second compound 3 µM, first compound 0.000316 µM): 98.5%
viability, T/C (second compound 3 µM, first compound 0.001 µM): 92.2%
viability, T/C (second compound 3 µM, first compound 0.00316 µM): 94.9%
viability, T/C (second compound 3 µM, first compound 0.01 µM): 12.9%
viability, T/C (second compound 9.49 µM, first compound 31.6 pM): 97%
viability, T/C (second compound 9.49 µM, first compound 0.0001 µM): 94.2%
viability, T/C (second compound 9.49 µM, first compound 0.000316 µM): 91.1%
viability, T/C (second compound 9.49 µM, first compound 0.001 µM): 95.2%
viability, T/C (second compound 9.49 µM, first compound 0.00316 µM): 79.7%
viability, T/C (second compound 9.49 µM, first compound 0.01 µM): 8.65%
viability, T/C (second compound 30 µM, first compound 31.6 pM): 78.5%
viability, T/C (second compound 30 µM, first compound 0.0001 µM): 81.9%
viability, T/C (second compound 30 µM, first compound 0.000316 µM): 77.6%
viability, T/C (second compound 30 µM, first compound 0.001 µM): 78%
viability, T/C (second compound 30 µM, first compound 0.00316 µM): 71.2%
viability, T/C (second compound 30 µM, first compound 0.01 µM): 6.97%

Cn1cnc2c(F)c(Nc3ccc(Br)cc3Cl)c(C(=O)NOCCO)cc21 + CC(C)NCC(C(=O)N1CCN(c2ncnc3c2C(C)CC3O)CC1)c1ccc(Cl)cc1
pIC50 (second compound 0.3 µM): 6.58
pIC50 (second compound 0.949 µM): 7.29
pIC50 (second compound 3 µM): 7.49
pIC50 (second compound 9.49 µM): 7.77
pIC50 (second compound 30 µM): 8.02
viability, T/C [1]: 76.1%
viability, T/C [2]: 69.6%
viability, T/C (second compound 0.3 µM, first compound 0.0949 µM): 59%
viability, T/C (second compound 0.3 µM, first compound 0.3 µM): 48.5%
viability, T/C (second compound 0.3 µM, first compound 0.949 µM): 37%
viability, T/C (second compound 0.3 µM, first compound 3 µM): 23%
viability, T/C [3]: 70%
viability, T/C [4]: 56.2%
viability, T/C (second compound 0.949 µM, first compound 0.0949 µM): 42.9%
viability, T/C (second compound 0.949 µM, first compound 0.3 µM): 30.3%
viability, T/C (second compound 0.949 µM, first compound 0.949 µM): 21.7%
viability, T/C (second compound 0.949 µM, first compound 3 µM): 13.5%
viability, T/C [5]: 72.5%
viability, T/C [6]: 51.6%
viability, T/C (second compound 3 µM, first compound 0.0949 µM): 31.2%
viability, T/C (second compound 3 µM, first compound 0.3 µM): 19.4%
viability, T/C (second compound 3 µM, first compound 0.949 µM): 13.6%
viability, T/C (second compound 3 µM, first compound 3 µM): 10.7%
viability, T/C [7]: 60.4%
viability, T/C [8]: 40.6%
viability, T/C (second compound 9.49 µM, first compound 0.0949 µM): 24.1%
viability, T/C (second compound 9.49 µM, first compound 0.3 µM): 17.4%
viability, T/C (second compound 9.49 µM, first compound 0.949 µM): 10.9%
viability, T/C (second compound 9.49 µM, first compound 3 µM): 8.27%
viability, T/C [9]: 50.1%
viability, T/C [10]: 33.9%
viability, T/C (second compound 30 µM, first compound 0.0949 µM): 21.2%
viability, T/C (second compound 30 µM, first compound 0.3 µM): 15.5%
viability, T/C (second compound 30 µM, first compound 0.949 µM): 11.1%
viability, T/C (second compound 30 µM, first compound 3 µM): 9.61%
